Results reported in the supplement of paper PMC10307832.

What was measured:
Assay in all cases: relative viability (nuclei count vs DMSO), 5 days (fraction); higher = more cells survive
[1] = system: EMC-BAC-2
Procedure, shortened: (§1)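 Lung cancer cell lines in 1536-well plates got either a single drug or a fixed anchor-drug dose together with five library-drug doses (not always all listed) in √10 steps, by pin tool, on the day after seeding. Nuclei were counted after 5 days, and relative viability is the treated-to-vehicle ratio of nuclei counts. Values are medians of duplicate plates.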

[2] = system: NCI-H647
Procedure, shortened: as §1

[3] = system: NCI-H838
Procedure, shortened: as §1

[4] = system: 201T
Procedure, shortened: as §1

[5] = system: HARA
Procedure, shortened: as §1

[6] = system: NCI-H441
Procedure, shortened: as §1

[7] = system: BEN
Procedure, shortened: as §1

[8] = system: HCC-44
Procedure, shortened: as §1

[9] = system: NCI-H2126
Procedure, shortened: as §1

[10] = system: LOU-NH91
Procedure, shortened: as §1

[11] = system: NCI-H1666
Procedure, shortened: as §1

[12] = system: NCI-H2009
Procedure, shortened: as §1

`NC(=O)Nc1cc(-c2cccc(F)c2)sc1C(=O)N[C@H]1CCCNC1` [AZD7762] + CCNC(=O)c1noc(-c2cc(C(C)C)c(O)cc2O)c1-c1ccc(CN2CCOCC2)cc1 [Luminespib] (partner 0.01 µM) was tested, and the relative viability ([1]; first compound 0.1 µM) was 1.19, the relative viability ([1]; first compound 0.3162 µM) was 1.23 and the relative viability ([1]; first compound 1 µM) was 1.04. The relative viability ([2]; first compound 0.01 µM) was 0.118, the relative viability ([2]; first compound 0.03162 µM) was 0.163 and the relative viability ([2]; first compound 0.1 µM) was 0.0996. It also gave a relative viability ([2]; first compound 0.3162 µM) of 0.119, a relative viability ([2]; first compound 1 µM) of 0.101 and a relative viability ([3]; first compound 0.01 µM) of 0.277. For the same compound, the relative viability ([3]; first compound 0.03162 µM) was 0.336, the relative viability ([3]; first compound 0.1 µM) was 0.199 and the relative viability ([3]; first compound 0.3162 µM) was 0.157. It also gave a relative viability ([3]; first compound 1 µM) of 0.174, a relative viability ([4]; first compound 0.01 µM) of 1.11 and a relative viability ([4]; first compound 0.03162 µM) of 1.07. For the same compound, the relative viability ([4]; first compound 0.1 µM) was 1.06, the relative viability ([4]; first compound 0.3162 µM) was 1.14 and the relative viability ([4]; first compound 1 µM) was 0.913. The relative viability ([5]; first compound 0.01 µM) was 1.02, the relative viability ([5]; first compound 0.03162 µM) was 0.71 and the relative viability ([5]; first compound 0.1 µM) was 0.604. The relative viability ([5]; first compound 0.3162 µM) was 0.471, the relative viability ([5]; first compound 1 µM) was 0.12 and the relative viability ([6]; first compound 0.01 µM) was 0.402. For the same compound, the relative viability ([6]; first compound 0.03162 µM) was 0.489, the relative viability ([6]; first compound 0.1 µM) was 0.285 and the relative viability ([6]; first compound 0.3162 µM) was 0.436. The relative viability ([6]; first compound 1 µM) was 0.212, the relative viability ([7]; first compound 0.01 µM) was 0.16 and the relative viability ([7]; first compound 0.03162 µM) was 0.665. For the same compound, the relative viability ([7]; first compound 0.1 µM) was 0.188, the relative viability ([7]; first compound 0.3162 µM) was 0.43 and the relative viability ([7]; first compound 1 µM) was 0.533. For the same compound, the relative viability ([8]; first compound 0.01 µM) was 1.14, the relative viability ([8]; first compound 0.03162 µM) was 0.997 and the relative viability ([8]; first compound 0.1 µM) was 0.918. For the same compound, the relative viability ([8]; first compound 0.3162 µM) was 0.96, the relative viability ([8]; first compound 1 µM) was 0.423 and the relative viability ([9]; first compound 0.01 µM) was 0.922. For the same compound, the relative viability ([9]; first compound 0.03162 µM) was 0.914, the relative viability ([9]; first compound 0.1 µM) was 0.833 and the relative viability ([9]; first compound 0.3162 µM) was 0.802. It also gave a relative viability ([9]; first compound 1 µM) of 0.456, a relative viability ([10]; first compound 0.01 µM) of 0.302 and a relative viability ([10]; first compound 0.03162 µM) of 0.317. The relative viability ([10]; first compound 0.1 µM) was 0.403, the relative viability ([10]; first compound 0.3162 µM) was 0.309 and the relative viability ([10]; first compound 1 µM) was 0.379. The relative viability ([11]; first compound 0.01 µM) was 1.11, the relative viability ([11]; first compound 0.03162 µM) was 1.07 and the relative viability ([11]; first compound 0.1 µM) was 1.18. The relative viability ([11]; first compound 0.3162 µM) was 1.03, the relative viability ([11]; first compound 1 µM) was 0.97 and the relative viability ([12]; first compound 0.01 µM) was 1.06. For the same compound, the relative viability ([12]; first compound 0.03162 µM) was 0.975, the relative viability ([12]; first compound 0.1 µM) was 1.12 and the relative viability ([12]; first compound 0.3162 µM) was 0.935. For the same compound, the relative viability ([12]; first compound 1 µM) was 0.663.
